From the NIST ThermoML archive (doi:10.1016/j.tca.2012.12.004)
Numbers after ± are expanded uncertainties.

Assay: molar heat capacity at constant pressure; xn = mol fraction of the nth substance listed
Conditions: 101 kPa, Crystal, Small (less than 1 g) adiabatic calorimetry, x1 = 0.7

[Ba+2].[F-].[F-] [barium difluoride] + [F][La]([F])[F]
Conditions	molar heat capacity at constant pressure [J/K/mol]
10 K	0.3566 ± 0.2
15 K	1.198 ± 0.2
20 K	2.757 ± 0.21
25 K	4.992 ± 0.22
30 K	7.683 ± 0.23
35 K	10.6 ± 0.24
40 K	13.58 ± 0.25
45 K	16.57 ± 0.27
50 K	19.51 ± 0.28
60 K	25.25 ± 0.3
70 K	30.71 ± 0.32
80 K	35.83 ± 0.34
90 K	40.57 ± 0.36
100 K	44.9 ± 0.38
110 K	48.81 ± 0.4
120 K	52.33 ± 0.41
130 K	55.47 ± 0.42
140 K	58.27 ± 0.43
150 K	60.76 ± 0.44
160 K	62.98 ± 0.45
170 K	64.95 ± 0.46
180 K	66.7 ± 0.47
190 K	68.28 ± 0.47
200 K	69.68 ± 0.48
210 K	70.94 ± 0.48
220 K	72.07 ± 0.49
230 K	73.09 ± 0.49
240 K	74.02 ± 0.5
250 K	74.85 ± 0.5
260 K	75.6 ± 0.5
270 K	76.29 ± 0.51
280 K	76.91 ± 0.51
290 K	77.48 ± 0.51
298.15 K	77.91 ± 0.51
300 K	78.01 ± 0.51
310 K	78.48 ± 0.51
320 K	78.93 ± 0.52
330 K	79.33 ± 0.52
340 K	79.7 ± 0.52
